25 compounds from PubChem BioAssay (NCI) can be followed below.

Structures are written as SMILES.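 Tested at 5 concentrations; 48 h exposure; 96-well plates; endpoints linearly interpolated, else capped at highest concentration. GI50 marks 50% less growth. Definition used: TGI = concentration required for complete inhibition of growth.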 A value given as a limit tells only on which side of the number the result lay.

Holding throughout (test): growth of human tumour cells (NCI), 48 h
Test [1] has as its system LOX IMVI melanoma.
Test [2] relates to SK-OV-3 ovarian.
The subject of test [3] is SK-MEL-2 melanoma.
Test [4] relates to A549 NSCLC.
Test [5] relates to HOP-62 NSCLC.
The subject of test [6] is OVCAR-5 ovarian.
Test [7] has as its system SF-268 CNS.
Test [8] relates to SR leukemia.

For `COc1ccc(-c2oc3cc(O)c(OC)c(O)c3c(=O)c2OC2OC(CO)C(O)C(O)C2O)cc1` (stereo not given), the TGI in test [1], in test [2], in test [3] and in test [4] was greater than 100 µM each time.

For the compound `S=c1[nH]nc(COc2ccc(Cl)cc2)o1`, the TGI in test [5], in test [6], in test [7], in test [2] and in test [4] was greater than 100 µM throughout.

Regarding `CCCCN(CCCC)C(=O)C(=O)CC(=O)c1ccc(Br)cc1`, the TGI in test [5], in test [6], in test [1], in test [7], in test [2] and in test [3] was greater than 100 µM throughout. Further, the TGI in test [4] was greater than 100 µM.

`Cc1cc(Br)cc(C)c1NC(=O)C(=O)CC(=O)c1sc(-n2nc(-c3ccccc3)cc2-c2ccccc2)nc1C`: the TGI in test [5], in test [6], in test [8], in test [1], in test [7] and in test [2] was greater than 100 µM throughout. In test [4], this compound had a TGI greater than 100 µM.

In the case of `N[C@H]1C2C3CC4C5CC(C42)C1(c1ccccc1)C53` (stereo not given in full), the TGI in test [5], in test [6], in test [8], in test [1], in test [7] and in test [2] was greater than 100 µM each time. Also, the TGI in test [3] and in test [4] was greater than 100 µM in each case.

In the case of `COC1C=C(Nc2cccc(Cl)c2)C(=O)C1` (stereo not given), the TGI in test [5], in test [6], in test [8], in test [1], in test [7] and in test [2] was greater than 100 µM each time. For the same compound, the TGI in test [3] is greater than 100 µM; in test [4], 41.2 µM.

Consider `CC1=C(C(=O)Nc2ccccc2)C(c2ccc3c(c2)OCO3)C(C(=O)Nc2ccccc2)=C(C)N1`, for which the TGI was greater than 100 µM in test [5]; 76.5 µM in test [1]; greater than 100 µM in test [7]; greater than 100 µM in test [2]; 74.5 µM in test [3]; greater than 100 µM in test [4].

As to `C/C(=N\NC(=S)Nc1ccc(C(=O)O)cc1)c1ccccn1`, the TGI in test [5] is greater than 100 µM; in test [6], 60.7 µM; in test [8] it was 56.3 µM; in test [1] it was greater than 100 µM; in test [7], greater than 100 µM; in test [3], 35.4 µM. The TGI in test [4] is greater than 100 µM.

Consider `CCOP(=O)(OCC)C1C(=O)O[C@H]2CCCC[C@@H]12` (stereo not given in full), for which the TGI in test [5], in test [6], in test [1], in test [7], in test [2] and in test [3] was greater than 100 µM each time. In test [4], this compound had a TGI greater than 100 µM.

Regarding `O=[N+]([O-])c1ccc(-c2ccc(/C=N/n3c(-c4ccc(Cl)cc4)n[nH]c3=S)o2)cc1`, the TGI in test [5] was greater than 52.9 µM; in test [6], greater than 100 µM; in test [8], greater than 83.6 µM; in test [1] it was greater than 100 µM; in test [7], greater than 100 µM; in test [2] it was greater than 100 µM. The TGI is greater than 100 µM in test [3] and greater than 64.6 µM in test [4].

For the compound `Cc1cc(C)nc(NS(=O)(=O)c2ccc(Nc3c4ccccc4nc4c(C(=O)Nc5ccc(S(N)(=O)=O)cc5)cccc34)cc2)n1`, the TGI in test [5] was greater than 100 µM; in test [6], greater than 100 µM; in test [1], greater than 100 µM; in test [7], greater than 100 µM; in test [2], 75.5 µM; in test [3] it was greater than 100 µM. Besides, in test [4], the TGI was greater than 100 µM.

`CC1=C(C(=O)Nc2ccc([N+](=O)[O-])cc2)C(c2ccco2)C(C(=O)Nc2ccc([N+](=O)[O-])cc2)=C(C)N1`: the TGI in test [5] was 71.1 µM; in test [6], greater than 100 µM; in test [1], greater than 100 µM; in test [7], greater than 100 µM; in test [2], 62.9 µM; in test [3], 28 µM. This compound registered a TGI in test [4] greater than 100 µM.

Regarding `O/N=C1/C(=C/c2ccc(F)cc2)CCCC1C(NO)c1ccc(F)cc1` (stereo not given), the TGI in test [5], in test [7], in test [2], in test [3] and in test [4] was greater than 100 µM in each case.

As to `CCOC(=O)c1cccc(=O)c(C(=O)OCC)c1`, the TGI in test [5], in test [6], in test [2], in test [3] and in test [4] was greater than 100 µM in each case.

For the compound `CC(C)=CC(=O)CC(=O)C(=O)Nc1ccc(C)c(C)c1`, the TGI in test [8], in test [1], in test [7], in test [2], in test [3] and in test [4] was greater than 100 µM throughout.

In the case of `CCOC(=O)Cc1c(Cc2[nH]c(C(=O)OCc3ccccc3)c(CC(=O)OCC)c2CC(=O)OCC)[nH]c(C(=O)OCc2ccccc2)c1CC(=O)OCC`, the TGI in test [5], in test [8], in test [7], in test [2] and in test [4] was greater than 100 µM each time.

As for `CC1=COC(=O)c2ccccc2N1`, the TGI in test [5], in test [6], in test [8], in test [1], in test [7] and in test [2] was greater than 100 µM in each case. In addition, the TGI in test [3] and in test [4] was greater than 100 µM throughout.

In the case of `C=C(c1ccccc1N)[C@@]1(O)C[C@H](/C(=C\C)CO)C[C@@H]1NCc1ccccc1`, the TGI was greater than 100 µM in test [5]; 31.6 µM in test [1]; greater than 100 µM in test [7]; 73.7 µM in test [2]; 39.2 µM in test [3]; greater than 100 µM in test [4].

On to `N#Cc1ccccc1NC(=O)C(=O)C(C(=O)c1ccccc1-c1ccccc1)C1OC(=O)c2ccccc21` (stereo not given), for which the TGI is 25.1 µM in test [5]; 33 µM in test [6]; 32.2 µM in test [1]; 38.8 µM in test [7]; greater than 100 µM in test [2]; 32.1 µM in test [3]. Also, the TGI in test [4] is greater than 100 µM.

Turning to `O=C(O)CN(c1ccc(Cl)cc1)S(=O)(=O)c1ccccc1`, the TGI in test [6], in test [1], in test [7], in test [2], in test [3] and in test [4] was greater than 100 µM each time.

Regarding `CCCCCCC(=O)C/C(CCC(=O)N(Cc1ccccc1)Cc1ccccc1)=N\Nc1ccc([N+](=O)[O-])cc1[N+](=O)[O-]`, the TGI in test [5], in test [6], in test [1], in test [7], in test [2] and in test [3] was greater than 100 µM throughout. Moreover, in test [4], the TGI is greater than 100 µM.

With `Cn1ncc2cc3c(Nc4ccc(Cl)cc4)cccc3nc21`, the TGI is 53 µM in test [5]; 41.4 µM in test [1]; greater than 100 µM in test [7]; greater than 100 µM in test [2]; 51.8 µM in test [3]; 85.3 µM in test [4].

In the case of `CC(Cl)(/C=C/Cl)C(Cl)/C=C/C(Cl)(CCl)CBr` (stereo not given), the TGI in test [5] was found to be 42.8 µM; in test [6], 29.5 µM; in test [8], 2.07 µM; in test [1], 4.5 µM; in test [7] it was 11.3 µM; in test [2], 30.9 µM. For the same compound, the TGI was found to be 19.8 µM in test [3] and 47.3 µM in test [4].

On to `O=C1C2=C(c3ccccc31)C(c1ccc(Cl)cc1)N1C(=O)CCSC1=N2` (stereo not given), for which the TGI in test [5], in test [6], in test [7], in test [2], in test [3] and in test [4] was greater than 100 µM in each case.

Turning to `CC(=O)[CH-]C(=O)c1ccccc1.CC(=O)[CH-]C(=O)c1ccccc1.CCN(CC)CC[O-].CCN(CC)CC[O-].Cl.[Ti+4]`, the GI50 in test [5] is 37.4 µM; in test [6], 59.6 µM; in test [1] it was 43.4 µM; in test [7] it was 35.2 µM; in test [2], 32.6 µM; in test [3] it was 26.9 µM. In addition, in test [4], the GI50 was 27.9 µM. Moreover, the TGI is greater than 100 µM in test [5]; greater than 100 µM in test [6]; greater than 100 µM in test [1]; greater than 100 µM in test [7]; greater than 100 µM in test [2]; 93.9 µM in test [3]. The compound further had a TGI in test [4] of 98.6 µM.
